Experimental data published in patent US20140206681A1, “BTK INHIBITORS” (priority 2013, published 2014).

Experiments:
[1] = tested on: HeLa cells; assay: [3H]Adenosine uptake functional cellular assay; type: cell-based; conditions: Homo sapiens, HeLa, accumulation of [3H]adenosine into HeLa cells; compound range 10 μM to […]; read-out: Adenosine uptake inhibition IC50
Procedure: Compounds are also screened in an adenosine uptake functional cellular assay using the protocol described below. The adenosine uptake inhibition assay may be used to identify compounds with the potential for a negative cardiovascular side effect.
Adenosine uptake activity was determined by monitoring the accumulation of tritiated adenosine into HeLa cells (ATCC catalog # CCL-2) using a PMT-based radiometric detection instrument. […] These cells were incubated overnight at 37° C. in a humidified atmosphere with 5% (v/v) CO2. After this time the growth medium was removed and replaced with 40 μL assay medium comprising: Hanks balanced salts solution (HBSS; Thermo Fisher Catalog # SH30268.01)+5% (v/v) FBS. […] 40 μL of compound in the assay medium was dispensed into individual wells of the Cytostar-T plates and the plates were incubated for 30 minutes under ambient laboratory conditions. Following this incubation, 20 μL of 500 nM [^3H]adenosine (American Radiolabeled Chemicals Inc. Catalog # ART0287) was added in the assay medium and incubated for a further 60 minutes under ambient laboratory conditions. The amount of radiolabel accumulation was then determined using a Perkin Elmer Topcount NXT microplate reader. In brief, HeLa cells adhere to the bottom of the Cytostar-T plate, uptake of [^3H]adenosine into these cells brings the radiolabel into sufficient proximity to excite the scintillant in the base of the plates. These events are captured by single PMT, time-resolved coincidence counting. IC50 values were determined by 4 parameter robust fit of counts per second values vs. (Log10) compound concentrations.

[2] = biological target: T1, BTK enzyme (recombinant full-length BTK, hBTK) (Homo sapiens, UniProt Q06187); assay: BTK enzyme activity assay, LANCE TR-FRET; type: biochemical; conditions: 50 pM hBTK, 2 μM biotin-A5-peptide, 25 μM ATP; 60 min compound & enzyme incubation; read-out: IC50 BTK activity value
T1 construct: recombinant protein from baculovirus-transfected Sf9 cells: full-length BTK, 6HIS-tag cleaved; 6HIS (cleaved yes); made in house; host or cells: baculovirus-transfected Sf9 cells
T1 sequence (Q06187 whole entry): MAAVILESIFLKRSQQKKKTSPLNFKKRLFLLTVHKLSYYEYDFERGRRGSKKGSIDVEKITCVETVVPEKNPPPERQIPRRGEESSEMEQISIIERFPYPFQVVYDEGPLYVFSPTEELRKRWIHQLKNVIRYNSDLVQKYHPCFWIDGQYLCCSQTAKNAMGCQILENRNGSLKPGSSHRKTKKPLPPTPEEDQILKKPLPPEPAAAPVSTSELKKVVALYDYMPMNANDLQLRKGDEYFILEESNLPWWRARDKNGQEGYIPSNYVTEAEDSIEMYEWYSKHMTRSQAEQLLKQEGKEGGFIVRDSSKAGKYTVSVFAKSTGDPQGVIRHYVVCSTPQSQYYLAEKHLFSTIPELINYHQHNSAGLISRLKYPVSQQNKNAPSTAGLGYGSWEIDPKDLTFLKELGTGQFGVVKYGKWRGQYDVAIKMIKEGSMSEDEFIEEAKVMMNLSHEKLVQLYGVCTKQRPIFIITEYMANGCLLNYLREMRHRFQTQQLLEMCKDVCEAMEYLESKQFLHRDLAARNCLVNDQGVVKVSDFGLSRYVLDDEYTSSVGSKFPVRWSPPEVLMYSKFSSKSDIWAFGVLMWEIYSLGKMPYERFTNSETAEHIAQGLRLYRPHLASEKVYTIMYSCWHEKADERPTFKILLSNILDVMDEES

| Structure (SMILES) | IC50 [1] | IC50 [2] |
| --- | --- | --- |
| Nc1nccn2c([C@@H]3CC[C@H]4C[C@@H](O)C(=O)N4C3)nc(-c3ccc(C(=O)Nc4cc(C(F)(F)F)ccn4)cc3)c12 [Example 59, 4-{8-amino-3-[(2R,6R,8aS)-2-hydroxy-3-oxooctahydroindolizin-6-yl]imidazo[1,5-a]pyrazin-1-yl}-N-[4-(trifluoromethyl)pyridin-2-yl]benzamide] | 398 nM | 0.13 nM |
| CNc1nccn2c([C@@H]3CC[C@H]4CCC(=O)N4C3)nc(-c3ccc(C(=O)Nc4cc(C(F)(F)F)ccn4)cc3)c12 [Example 60, 4-{8-(methylamino)-3-[(6R,8aS)-3-oxooctahydroindolizin-6-yl]imidazo[1,5-a]pyrazin-1-yl}-N-[4-(trifluoromethyl)pyridin-2-yl]benzamide] | 44.1 nM | 12.7 nM |
| CCNC(=O)Nc1nccn2c([C@@H]3CC[C@H]4CCC(=O)N4C3)nc(-c3ccc(C(=O)Nc4cc(C(F)(F)F)ccn4)cc3)c12 [Example 61, 4-{8-[(ethylcarbamoyl)amino]-3-[(6R,8aS)-3-oxooctahydroindolizin-6-yl]imidazo[1,5-a]pyrazin-1-yl}-N-[4-(trifluoromethyl)pyridin-2-yl]benzamide] | 19.2 nM | 17.7 nM |
| C[C@H]1CC(=O)N2C[C@H](c3nc(-c4ccc(C(=O)Nc5cc(C(F)(F)F)ccn5)cc4)c4c(N)nccn34)CC[C@H]12 [Example 64, 4-{8-amino-3-[(1S,6R,8aR)-1-methyl-3-oxooctahydroindolizin-6-yl]imidazo[1,5-a]pyrazin-1-yl}-N-[4-(trifluoromethyl)pyridin-2-yl]benzamide] | 114 nM | 0.77 nM |
| Nc1nccn2c([C@@H]3CC[C@H]4CN(CCO)CC(=O)N4C3)nc(-c3ccc(C(=O)Nc4cc(C(F)(F)F)ccn4)cc3)c12 [Example 66, 4-{8-amino-3-[(7R,9aS)-2-(2-hydroxyethyl)-4-oxooctahydro-2H-pyrido[1,2-a]pyrazin-7-yl]imidazo[1,5-a]pyrazin-1-yl}-N-[4-(trifluoromethyl)pyridin-2-yl]benzamide] | 206 nM | 0.13 nM |
| Nc1nccn2c([C@H]3CC[C@@H]4C[C@@H](O)C(=O)N4C3)nc(-c3ccc(C(=O)Nc4cc(C(F)(F)F)ccn4)cc3)c12 [Example 67, 4-{8-amino-3-[(2R,6S,8aR)-2-hydroxy-3-oxooctahydroindolizin-6-yl]imidazo[1,5-a]pyrazin-1-yl}-N-[4-(trifluoromethyl)pyridin-2-yl]benzamide] | 410 nM | 3.7 nM |
| Nc1nccn2c([C@@H]3CC[C@H]4C[C@H](O)C(=O)N4C3)nc(-c3ccc(C(=O)Nc4cc(C(F)(F)F)ccn4)cc3)c12 [Example 68, 4-{8-amino-3-[(2S,6R,8aS)-2-hydroxy-3-oxooctahydroindolizin-6-yl]imidazo[1,5-a]pyrazin-1-yl}-N-[4-(trifluoromethyl)pyridin-2-yl]benzamide] | 430 nM | 0.081 nM |
| CCOc1cc(C(=O)Nc2cc(C(F)(F)F)ccn2)ccc1-c1nc([C@@H]2CC[C@H]3CCC(=O)N3C2)n2ccnc(N)c12 [Example 69, 4-{8-amino-3-[(6R,8aS)-3-oxooctahydroindolizin-6-yl]imidazo[1,5-a]pyrazin-1-yl}-3-ethoxy-N-[4-(trifluoromethyl)pyridin-2-yl]benzamide] | 1440 nM | 0.16 nM |
| Nc1nccn2c([C@@H]3CC[C@H]4CCC(=O)N4C3)nc(-c3ccc(C(=O)Nc4cc(C(F)(F)F)ccn4)cc3OC(F)F)c12 [Example 71, 4-{8-amino-3-[(6R,8aS)-3-oxooctahydroindolizin-6-yl]imidazo[1,5-a]pyrazin-1-yl}-3-(difluoromethoxy)-N-[4-(trifluoromethyl)pyridin-2-yl]benzamide] | 732 nM | 0.48 nM |
| Nc1nccn2c([C@H]3CC[C@H]4C[C@@H](O)C(=O)N4C3)nc(-c3ccc(C(=O)Nc4cc(C(F)(F)F)ccn4)cc3)c12 [Example 73, 4-{8-amino-3-[(2R,6S,8aS)-2-hydroxy-3-oxooctahydroindolizin-6-yl]imidazo[1,5-a]pyrazin-1-yl}-N-[4-(trifluoromethyl)pyridin-2-yl]benzamide] | 973 nM | 0.93 nM |
| Nc1nccn2c([C@H]3CN4C(=O)OC[C@H]4CO3)nc(-c3ccc(C(=O)Nc4cc(C(F)(F)F)ccn4)cc3)c12 [Example 76, 4-(8-amino-3-((6R,8aR)-3-oxohexa hydrooxazolo[4,3-c][1,4]oxazin-6-yl)imidazo[1,5-a]pyrazin-1-yl)-N-(4-(trifluoromethyl)pyridin-2-yl)benzamide] | 682 nM | 24.9 nM |
| C[C@H]1OC[C@@H]2CC[C@@H](c3nc(-c4ccc(C(=O)Nc5cc(C(F)(F)F)ccn5)cc4)c4c(N)nccn34)CN2C1=O [Example 77, 4-(8-amino-3-((3R,7R,9aS)-3-methyl-4-oxooctahydropyrido[2,1-c][1,4]oxazin-7-yl)imidazo[1,5-a]pyrazin-1-yl)-N-(4-(trifluoromethyl)pyridin-2-yl)benzamide] | 31.2 nM | 0.13 nM |
| N#C/N=C1\CC[C@@H]2CC[C@@H](c3nc(-c4ccc(C(=O)Nc5cc(C(F)(F)F)ccn5)cc4)c4c(N)nccn34)CN12 [Example 78, 4-(8-amino-3-((6R,8aS,E)-3-(cyanoimino)octahydroindolizin-6-yl)imidazo[1,5-a]pyrazin-1-yl)-N-(4-(trifluoromethyl)pyridin-2-yl)benzamide] | 132 nM | 0.46 nM |
| COC(=O)Nc1nccn2c([C@@H]3CC[C@H]4CCC(=O)N4C3)nc(-c3ccc(C(=O)Nc4cc(C(F)(F)F)ccn4)cc3)c12 [Example 79, methyl (3-((6R,8aS)-3-oxooctahydroindolizin-6-yl)-1-(4-((4-(trifluoromethyl)pyridin-2-yl)carbamoyl)phenyl)imidazo[1,5-a]pyrazin-8-yl)carbamate] | 295 nM | 7.3 nM |
| CCN1CC(=O)N2C[C@H](c3nc(-c4ccc(C(=O)Nc5cc(C(F)(F)F)ccn5)cc4)c4c(N)nccn34)CC[C@H]2C1 [Example 80, 4-(8-amino-3-((7R,9aS)-2-ethyl-4-oxooctahydro-1H-pyrido[1,2-a]pyrazin-7-yl)imidazo[1,5-a]pyrazin-1-yl)-N-(4-(trifluoromethyl)pyridin-2-yl)benzamide] | 82.5 nM | 0.27 nM |
| CC(C)N1CC(=O)N2C[C@H](c3nc(-c4ccc(C(=O)Nc5cc(C(F)(F)F)ccn5)cc4)c4c(N)nccn34)CC[C@H]2C1 [Example 81] | 68.6 nM | 0.29 nM |
| COC(=O)CN1CC(=O)N2C[C@H](c3nc(-c4ccc(C(=O)Nc5cc(C(F)(F)F)ccn5)cc4)c4c(N)nccn34)CC[C@H]2C1 [Example 82] | 78.1 nM | 0.19 nM |
| Nc1nccn2c([C@@H]3CC[C@H]4CCCN4C3)nc(-c3ccc(C(=O)Nc4cc(C(F)(F)F)ccn4)cc3)c12 [Example 87, 4-(8-amino-3-((6R,8aS)-octahydroindolizin-6-yl)imidazo[1,5-a]pyrazin-1-yl)-N-(4-(trifluoromethyl)pyridin-2-yl)benzamide] | 75.5 nM | 0.67 nM |
| COc1cc(C(=O)Nc2cc(C(F)(F)F)ccn2)ccc1-c1nc([C@@H]2CC[C@H]3[C@@H](C)OC(=O)N3C2)n2ccnc(N)c12 [Example 89, 4-(8-amino-3-((1R,6R,8aS)-1-methyl-3-oxohexahydro-1H-oxazolo[3,4-a]pyridin-6-yl)imidazo[1,5-a]pyrazin-1-yl)-3-methoxy-N-(4-(trifluoromethyl)pyridin-2-yl)benzamide] | 490 nM | 0.13 nM |
| COc1cc(C(=O)Nc2cc(C(F)(F)F)ccn2)ccc1-c1nc([C@@H]2CC[C@@H]3N(C2)C(=O)OC3(C)C)n2ccnc(N)c12 [Example 90, 4-(8-amino-3-((6R,8aS)-1,1-dimethyl-3-oxohexahydro-1H-oxazolo[3,4-a]pyridin-6-yl)imidazo[1,5-a]pyrazin-1-yl)-3-methoxy-N-(4-(trifluoromethyl)pyridin-2-yl)benzamide] | 373 nM | 0.18 nM |
| COc1cc(C(=O)Nc2cc(C(F)(F)F)ccn2)ccc1-c1nc([C@H]2CN3C(=O)CC[C@@H]3CO2)n2ccnc(N)c12 [Example 91, 4-(8-amino-3-((3R,8aR)-6-oxohexahydro-1H-pyrrolo[2,1-c][1,4]oxazin-3-yl)imidazo[1,5-a]pyrazin-1-yl)-3-methoxy-N-(4-(trifluoromethyl)pyridin-2-yl)benzamide] | 639 nM | 0.52 nM |
| Nc1nccn2c([C@@H]3CC[C@H]4CCOC(=O)N4C3)nc(-c3ccc(C(=O)Nc4cc(C(F)(F)F)ccn4)cc3)c12 [Example 92, 4-{8-amino-3-[(4aS,7R)-1-oxohexahydro-3H-pyrido[1,2-c][1,3]oxazin-7-yl]imidazo[1,5-a]pyrazin-1-yl}-N-[4-(trifluoromethyl)pyridin-2-yl]benzamide] | 64.6 nM | 0.075 nM |
